Data as given in patent US8093043B2, “β-TrCP1, β-TrCP2 and RSK1 or RSK2 inhibitors and methods for sensitizing target cells to apoptosis” (New York University, priority 2008, dated 2012).
“Also recorded” adds a separate entry of the source. Blank lines part the entries; values can stand above or below the molecule they belong to. Non-standard residues stand in square brackets, D forms with d. Residues, ends and D or L forms follow the SMILES beside them. No end group written: not given here. *: point of attachment. pS = N[C@@H](COP(=O)(O)O)C(=O)O; Cbz = O=C(OCc1ccccc1)*

Assays:
BimEL [1] = test: PMA-induced BimEL degradation in HEK293 cells (immunoblot); format: cell-based, human
Source text: siRNA. β-TrCP1/2 siRNA […] (SEQ ID NO:19) (Guardavaccaro et al., In vivo Dev Cell, 2003, 4:799-812; Margottin-Goguet cl al., Dev Cell, 2003; 4:813-26); RSK1 siRNA […] (SEQ ID NO:21) and RSK2 siRNA […] (SEQ ID NO:22) (Anjum et al., Curr Biol., 2005, 15:1762-7; Roux et al., J Biol. Chem., 2007, 282:14056-64). Control oligonucleotide was a dsRNA oligo to LacZ mRNA […] (SEQ ID NO:28). All siRNA oligonucleotides were from Dharmacon Research Inc. (Lafayette, Colo.). Cells were transfected with siRNA duplexes by Oligofectamine (Invitrogen, Carlsbad, Calif.), following manufacturer's instructions. Cells were transfected with the oligos twice (at 24 and 48 hours after plating) using oligofectamine (Invitrogen) for HEK293, HiPerFect (Qiagen) for NSCLC cell lines, or the AMAXA nucleofactor (Amaxa Inc. Gaithersburg, Md.) for CD4+ human T cell blasts at day 5, according to manufacturer's recommendations. 24 or 48 hours after the last transfection, cells were collected and analyzed.
(§1) When βTrCP1/2 is silenced (FIG. 4A) or RSK1/2 is silenced (FIG. 4B), BimEL's degradation (induced with PMA) is inhibited. […] For the experiments shown in FIG. 4A, HEK293 cells were treated with control siRNA (SEQ ID NO:28) or siRNA targeting βTrcp1/2 (SEQ ID NO:19). 48 hours after siRNA treatment cells were treated with PMA or with PMA+MG 132 (last four lanes) for indicated times. Protein extracts were immunoblotted for the indicated proteins.
For the experiments shown in FIG. 4B, HEK293 cells were treated with control siRNA (SEQ ID NO:28) or siRNA targeting RSK 1 (SEQ ID NO:21) and RSK2 (SEQ ID NO:22). 48 hours after siRNA treatment cells were treated with PMA for indicated times. Protein extracts were immunoblotted for the indicated proteins.

BimEL [2] = test: In vivo phosphorylation of BimEL on Ser93/94/98 (immunoprecipitation, phospho-specific antibody); format: cell-based; settings: cells serum deprived 24 hours, PMA for 10 minutes
Method: Serines 93, 94 and 98 were also shown to be phosphorylated in vivo following activation of ERK by either serum addition or PMA (FIG. 2C). In this experiment, BimEL from cells treated with PMA as well as from cells released from serum starvation were immunoprecipitated. In the experiments in FIG. 2C, cells were serum deprived (SD) for 24 hours, serum released (SR) for 10 minutes (lane 2) or treated with PMA for 10 minutes (lane 3-5). Whole cell extracts (WCE) were subjected to immunoprecipitation using HA resin (α-HA) followed by immunoblotting for β-TrCP1, and antiHA (for BimEL).

βTrCP = βTrCP knockdown efficiency (Cdc25A accumulation, RT-PCR); format: cell-based, human; settings: HEK293 cells; accumulation of Cdc25A, confirmed by RT-PCR
Method: FIGS. 8A-E represent quantitative analysis of βTrCP1 mRNA in HEK293, HCC827, H1650 cell lines and CD4+ human T cells treated with an siRNA oligo targeting both βTrCP1 and βTrCP2 mRNAs (SEQ ID NO:19). Representative examples showing knockdown efficiency for βTrCP siRNA by RT-PCR analysis with oligo-dT-primed, reverse-transcribed cDNA derived from total RNA that was prepared from the indicated cells transfected with either control or βTrCP siRNAs. Quantitative PCR was conducted using locus-specific primers: forward […] (SEQ ID NO:29) and reverse […] (SEQ ID NO:30) (n=3, ±SD). For HEK293 cells, knockdown efficiency was additionally analyzed by βTrCP1 immunoprecipitation and subsequent immunoblot analysis (D).
as §1

β-TrCP1 = target: T1, β-TrCP1 (Homo sapiens, UniProt Q9Y297); test: In vitro peptide binding assay with 35S-labeled in vitro translated β-TrCP1; settings: autoradiography; Fbxw2 and Fbxw4 as comparison
T1 construct: host or cells: cell-free in vitro transcription/translation in reticulocyte lysate
T1 sequence (Q9Y297 1-605): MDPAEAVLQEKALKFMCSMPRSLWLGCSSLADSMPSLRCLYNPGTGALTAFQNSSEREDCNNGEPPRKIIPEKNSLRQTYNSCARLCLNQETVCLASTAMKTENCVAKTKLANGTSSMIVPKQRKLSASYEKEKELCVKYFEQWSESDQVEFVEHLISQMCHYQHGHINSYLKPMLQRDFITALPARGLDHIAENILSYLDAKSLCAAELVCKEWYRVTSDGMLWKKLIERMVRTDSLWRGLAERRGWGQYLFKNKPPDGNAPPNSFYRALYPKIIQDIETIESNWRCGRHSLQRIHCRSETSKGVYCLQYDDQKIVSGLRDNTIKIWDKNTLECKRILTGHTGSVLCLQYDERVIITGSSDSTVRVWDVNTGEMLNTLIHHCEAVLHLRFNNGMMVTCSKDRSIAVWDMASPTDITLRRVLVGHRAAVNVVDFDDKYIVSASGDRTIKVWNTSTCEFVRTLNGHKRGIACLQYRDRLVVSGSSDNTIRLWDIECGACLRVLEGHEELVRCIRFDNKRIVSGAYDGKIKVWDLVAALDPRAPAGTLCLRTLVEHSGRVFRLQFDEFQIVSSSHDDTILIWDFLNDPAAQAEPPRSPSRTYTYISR
Method: Peptide binding assay. The peptides were coupled to agarose beads using the Aminolink Kit (Pierce, Rockford, Ill.). Coupled BimEL, β-TrCP1/2, RSK1/2, or Cdc25A peptides (10 mg) were incubated with ^35S-methionine-labeled in vitro-translated β-TrCP1/2, FBXW2 or FBXW4, using the TNT-coupled reticulocyte lysate system (Promega, Madison, Wis.) in the presence of 5 μCi of ^35S-labeled methionine (Amersham Biosciences, Piscataway, N.Y.). Agarose beads were washed with RIPA buffer and binding was assayed by SDS-PAGE followed by autoradiography.
In this experiment in vitro binding assays were performed using in, vitro translated β-TrCP1 and a purified BimEL peptide composed of 13 amino-acids containing the degron motif. The in vitro binding assays were performed between ^35S-labeled in vitro transcribed/translated β-Trcp1, Fbxw2 and Fbxw4 and beads-coupled BimEL peptide ^88[…]^100 (SEQ ID NO:24) or BimEL phosphopeptide ^88CLSRSpSpSGYFpSFD^100 (SEQ ID NO:25). Bound proteins were eluted and subjected to electrophoresis and autoradiography.

primary thymocytes = test: Cell death of primary thymocytes from Bim+/+ or Bim−/− mice (propidium iodide flow cytometry); format: cell-based, mouse; settings: primary thymocytes (T cells) from Bim+/+ or Bim−/− mice, 10 mM BI-D1870, 0-5 days
Method: Cell death was induced by addition of 10 mM BI-D1870 for 0-5 days in primary thymocytes obtained from Bim+/+ or Bim−/− mice. Cell viability was determined by flow cytometric analysis by staining the cells with propidium iodide. Cell debris was excluded from analysis based on its forward and sideward scatter characteristics. The experiment was performed in triplicate using 3 Bim+/+ and 2 Bim−/− mice for each experiment. Data shown are the means±1 SD.
Cells. HeLa (from ATCC) and U2OS (from ATCC) cells were cultured essentially as described in Donzelli et al. (EMBO J., 2002; 21:4875-84). Cells were grown at 37° C. in a 5% CO2 atmosphere in Dulbecco's modified Eagle's medium (Euroclone) supplemented with 10% bovine calf serum (Hyclone) and 2 mM L-glutamine (Euroclone), or in DMEM containing 5% fetal calf serum (FCS, from GIBCO). HEK293 (from ATCC), Bim−/− MEFs and Bax−/−; Bak−/− immortalized mouse embryo fibroblasts (MEFs) (from Dr. Huang at The Walter and Eliza Hall Institute of Medical Research, Australia; see Bouillet et al., Science, 1999, 286:1735-1738; Lindsten et al., Mol. Cell, 2000, 6:1389-1399) were maintained in Dulbecco's modified Eagle's medium (DMEM) containing 10% fetal bovine serum (FBS, from GIBCO). H1650 and HCC827 cells (both from ATCC) were maintained in RPMI-1640 medium (GIBCO) containing 10% FBS. Primary thymocytes were obtained from 6 week Bim+/+ or Bim−/− mice. […]

BimEL [3] = test: BimEL accumulation in MEFs after pharmacological RSK inhibition (immunoblot); format: cell-based, mouse; settings: MEFs, 0, 1 and 5 μM BI-D1870 for 12 hours, immunoblot for Bim
Method: MEFs were treated with 0, 1 and 5 μM BI-D1870 for 12 hours. Cell extracts were then immunoblotted for the Bim and HSP70 (control) proteins.
Western Blotting (IP-Western). Immuno-blotting was conducted essentially as described in Donzelli et al. (2002), supra. Three pieces of the Whatman paper were wetted in Western transfer buffer (48 mM Tris Base, 39 mM Glycine, 0.0375% SDS, and 20% Methanol in ddH2O), excess of buffer was removed and pieces were placed onto the platinum anode (BIO-RAD semi-dry trans-blot SD). The nitrocellulose was wetted in the same buffer and placed onto the Whatman paper. The gel was wetted in the transfer buffer for 5 to 10 seconds and placed onto the nitrocellulose. Three pieces of Whatman paper were wetted and, removing excess of buffer, placed onto the gel. Air bubbles were removed throughout this procedure. The trans-blot cathode was placed onto the stack. The gel was transferred at a constant voltage between 15 to 25V for 30 minutes.

H1650 cells = settings: EGFR mutant NSCLC; cited from earlier work
[4] = siRNAs targeting RSK1 and RSK2 used together, PMA 48 hours after siRNA

Molecule: CC(C)C[C@@H](C=O)NC(=O)[C@H](CC(C)C)NC(=O)[C@H](CC(C)C)NC(=O)OCc1ccccc1 [MG132] (Cbz-Leu-Leu-Leu-aldehyde)
effect on PMA-induced BimEL degradation (BimEL [1]; PMA+MG 132): Inhibition of BimEL's degradation

Molecule: CCCCCCCCCCCCCC(=O)O[C@@H]1[C@@H](C)[C@@]2(O)[C@@H](C=C(CO)C[C@]3(O)C(=O)C(C)=C[C@@H]23)[C@@H]2C(C)(C)[C@]12OC(C)=O [PMA]
phosphorylation of BimEL on Ser93/94/98 (BimEL [2]): rapidly induced

Molecule: CCCAACAUCAUCACUCUGAAA (listed as RNA, chemistry not given here; listed as Homo sapiens) [SEQ ID NO:21, siRNA for human RSK1]
effect on PMA-induced BimEL degradation (BimEL [1]; [4]): counteracted the effect of PMA on BimEL degradation, stabilizing BimEL

Molecule: GUGGAAUUUGUGGAACAUC [SEQ ID NO:19]
βTrCP knockdown (βTrCP): efficient βTrCP knockdown
effect on PMA-induced BimEL degradation (BimEL [1]; siRNA targeting βTrcp1/2, PMA 48 hours after siRNA): counteracted the effect of PMA on BimEL degradation, stabilizing BimEL

Molecule: AGCGCUGAGAAUGGACAGCAA (listed as RNA, chemistry not given here; listed as Homo sapiens) [SEQ ID NO:22, siRNA for human RSK2]
effect on PMA-induced BimEL degradation (BimEL [1]; [4]): counteracted the effect of PMA on BimEL degradation, stabilizing BimEL

binding of βTrCP1 to beads-coupled BimEL peptide (β-TrCP1): binds specifically
Molecule: ^88CLSRSpSpSGYFpSFD^100 (CLSRS[pS][pS]GYF[pS]FD; listed as Homo sapiens) [SEQ ID NO:25, BimEL phosphopeptide of 13 amino acids containing the degron motif]

Molecule: CC(C)CCN1c2nc(Nc3cc(F)c(O)c(F)c3)ncc2N(C)C(=O)C1C (stereo not shown) [BI-D1870]
Bim-dependent cell death / cell viability (primary thymocytes): from wild-type mice, but not from Bim^−/− mice, died; also recorded: induces Bim-dependent cell death
BimEL accumulation (BimEL [3]): induced BimEL accumulation; also recorded: induces an accumulation of BimEL

Molecule: COc1cc2ncnc(Nc3ccc(F)c(Cl)c3)c2cc1OCCCN1CCOCC1 [gefitinib]
sensitivity to gefitinib (H1650 cells): not
